Results on three compounds are retold here after patent publication US5736517A, “Treatment of cancer with peptides” (Biomeasure, Inc., priority 1993, dated 1998).

One data set deals with CX-5 human colon tumor. Briefly: CX-5 human colon tumor, 11-day subrenal capsule assay (SRCA). The data set is classed as in vivo. The following applies: tumor-bearing athymic nude mice, both CX-5 tests (Tables 2 and 3). The source says:
The human colon tumor used for testing was the CX-5 tumor, which was surgically removed from a human and carried as an implant in athymic nude mice. The patient had been untreated prior to surgical removal of the tissue specimen. […] CX-5 was a moderately well-differentiated, mucin secreting adenocarcinoma. The tumor is arranged in acini lined by one or more layers of lining cells which have round to oval vesicular nuclei containing prominent nucleoli. There are frequent mitoses, and the cells have eosinophilic cytoplasm. The acini contain abundant amounts of mucin.
We briefly describe subrenal capsule assay as follows. Tumors, 6-15 mm in diameter, were removed from the athymic mice and immediately placed in RPMI medium (Gibco, Grand Island, N.Y.) at room temperature. In the case of the larger tumors (over 10 mm in diameter), where the central parts frequently contained necrotic tissue, viable tissue was dissected out and placed in a separate Petri dish. The tissue pieces, while immersed in the medium, were cut with scalpels into cubes of approximately 1 mm.
Nude mice were anesthetized by i.p. injection of chloral hydrate (0.35-0.45 ml of a 0.22M solution). A shallow incision was made in the left flank and the kidney was exteriorized. […] Immediately after implantation,the tumor size was measured as described below. […]

The target of data set [1] is T1, bombesin receptors of mouse colon cancer (MC-26) cells (Mus musculus, UniProt P21729).
T1 construct: endogenous in cells; host or cells: MC-26 mouse colon carcinoma (tumour membranes)
T1 sequence (P21729 whole entry): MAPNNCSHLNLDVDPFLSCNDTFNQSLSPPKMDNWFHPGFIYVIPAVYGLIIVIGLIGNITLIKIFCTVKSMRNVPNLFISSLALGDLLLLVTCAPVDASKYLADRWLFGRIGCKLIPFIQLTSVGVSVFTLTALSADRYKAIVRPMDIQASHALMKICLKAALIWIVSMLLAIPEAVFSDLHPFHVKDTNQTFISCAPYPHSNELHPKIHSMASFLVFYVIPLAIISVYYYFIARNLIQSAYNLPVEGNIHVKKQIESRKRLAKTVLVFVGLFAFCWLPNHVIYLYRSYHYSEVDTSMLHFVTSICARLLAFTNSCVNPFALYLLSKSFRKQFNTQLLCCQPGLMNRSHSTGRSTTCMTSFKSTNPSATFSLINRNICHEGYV
Briefly: 125I-GRP binding to MC-26 tumor membranes. The following applies: 20 pM 125I-GRP. As to the method:
The bombesin analog BIM-26147 was tested for the ability to inhibit growth of the mouse colon tumor MC-26.
(§1) For both FIGS. 1 and 2, aliquots of tumor membranes (150 μg protein) were incubated with 20 pM of ^125 I-GRP in the presence of increasing concentrations of peptides, and the displacement of specifically bound ^125 I-GRP to MC-26 tumor membranes by increasing concentrations of peptides is presented as a percent of maximum specific binding of ^125 I-GRP. Each data point is the mean of two observations within an experiment, and represents two experiments. Table 1 presents the IC50 for ^125 I-GRP binding to mouse colon cancer (MC-26) cells and normal colon mucosal cells in the presence of bombesin receptor antagonists. The data in Table 1 was calculated from FIGS. 1 and 2. The fold difference is relative to bombesin (BBS) values.

Data set [2] deals with T2, bombesin receptors of normal mouse colon mucosal membranes (Mus musculus, UniProt P21729).
T2 construct: from tissue; host or cells: normal mouse colon mucosa (membranes)
T2 sequence (P21729 whole entry): as above
Briefly: 125I-GRP binding to normal mouse colon mucosal membranes. The following applies: 20 pM 125I-GRP. As to the method:
as §1

Molecules are shown by their SMILES. Where a SMILES comes first, the peptide text is derived from it. [ ]: non-standard residue; d: D form. The star is where a group is joined. X1 = CC(C)C[C@@H](CN[C@@H](CC(C)C)C(N)=O)N*; pGlu = O=C1CC[C@@H](C(=O)O)N1

On to `CC(C)C[C@@H](CN[C@@H](Cc1ccccc1)C(N)=O)NC(=O)[C@H](Cc1c[nH]cn1)NC(=O)CNC(=O)[C@@H](NC(=O)[C@H](C)NC(=O)[C@H](Cc1c[nH]c2ccccc12)NC(=O)[C@H](CCC(N)=O)NC(=O)[C@H](N)Cc1ccc(Cl)cc1)C(C)C` [BIM-26159, D-Cpa-Gln-Trp-Ala-Val-Gly-His-Leu.psi.[CH2 NH]Phe-NH2], for which, in the data set with CX-5 human colon tumor, the “effect on body weight” value is recorded as “no measurable effect on body weight”.

Take `CCCNC(=O)[C@H](CC(C)C)NC(=O)[C@H](Cc1cnc[nH]1)NC(=O)CNC(=O)[C@@H](NC(=O)[C@H](C)NC(=O)[C@H](Cc1c[nH]c2ccccc12)NC(=O)[C@H](CCC(N)=O)NC(=O)[C@H](N)Cc1ccccc1)C(C)C` [BIM-26147, D-Phe-Gln-Trp-Ala-Val-Gly-His-Leu-propylamide]: the half-inhibitory concentration (IC50) in data set [1] came to 4.5 nM; in data set [2] it was 1.6 nM.

Turning to `CC(C)C[C@@H](CN[C@@H](CC(C)C)C(N)=O)NC(=O)[C@H](Cc1cnc[nH]1)NC(=O)CNC(=O)[C@@H](NC(=O)[C@H](C)NC(=O)[C@H](Cc1c[nH]c2ccccc12)NC(=O)[C@H](CCC(N)=O)NC(=O)[C@H](CC(N)=O)NC(=O)CNC(=O)[C@H](CC(C)C)NC(=O)[C@H](CCCN=C(N)N)NC(=O)[C@H](CCC(N)=O)NC(=O)[C@@H]1CCC(=O)N1)C(C)C` [Leu^13 --.psi.(CH2,NH)--Leu^14 --BBS, Leu^13 .psi.[CH2 NH]Leu^14 bombesin] ([pGlu]QRLGNQWAVGH-X1), the concentration for half-maximal inhibition (IC50) in data set [1] is 80 nM; in data set [2] it was 15 nM.
